Patent US10197556B2, “Methods to detect non-genotoxic carcinogens using flatworms” (Universiteit Gent, priority 2015, dated 2019)
Where a name gives a salt, the structure may show the parent alone. Read-outs that look alike come from different tables or passages of the source.

Experiments:
[1] = test system: Macrostomum lignano; conditions: for prediction by the assay in the experiments: outcome over the experiments
Experimental: Cultures of Macrostomum lignano (37) were grown in artificial seawater (ASW) enriched with f/2-medium (40) and fed ad libitum with the diatom Nitzschia curvilineata (PAE culture collection; UGent on the World Wide Web at pae.ugent.be/collection.htm), as described in references 41 and 43.
One week before starting chemical exposure, a six-well plate filled with 4 ml f/2 medium (Novolab NV) was inoculated with diatoms to achieve an ad libitum food source during exposure. Starvation of the worms leads to a decrease in stem cell proliferation (as shown in Nimeth et al (29)), which would interfere with stem cell proliferation, the endpoint of the assay. Before the start of exposure, fifteen adult worms per condition were pipetted in each well, which was then emptied by pipetting without drying out the worms and refilled with f/2 medium (control), if required, F2+0.05% DMSO (vehicle control) and a concentration of the chemical.
The DMSO concentration in the vehicle control never exceeded 0.05%. This represented the maximum DMSO percentage in the chemical's highest test concentration.
To select the appropriate compound concentration, first, a broad concentration range-finding experiment (spacing factor 10; two weeks exposure) was carried out. Based on this pilot range finding, a fine-tuned range finding (spacing factor less than or equal to 2; for D-Mannitol factor 5) was chosen to conduct the assay. The maximum concentration tested depended on the test compound solubility and the requirement of a survival of twelve out of fifteen worms at the end of exposure.
For all chemicals investigated in this disclosure, the medium was refreshed weekly.
After a preliminary test (CP as reference) on different exposure times ranging from two days to six weeks, the worms were exposed for a period of two weeks, after which they were subjected to phosphorylated histone H3 immunostaining (PH3) to quantify mitosis.
To quantify mitotic cells in whole mount specimens, the mitotic marker anti-PH3 was used. The staining was performed by first relaxing the animals in a 1:1 mixture of MgCl2.6H2O (7.14%) and ASW (5 minutes), then in MgCl2.6H2O (7.14%) (undiluted, 5 minutes), followed by fixation in paraformaldehyde (PFA, 4% in PBS, 60 minutes). Animals were then rinsed with phosphate-buffered saline (PBS, 3×5 minutes) and blocked in bovine serum albumin, containing TRITON® (BSA-T, 0.1% TRITON® X-100, 60 minutes). Subsequently, animals were incubated in primary rabbit-anti-phos-H3 (1:300 in BSA-T, overnight, 4° C., Upstate Biotechnology), rinsed in PBS (3×5 minutes) and incubated in secondary TRITC-conjugated swine-anti-rabbit (1:150 in BSA-T, 1 hour, DAKO). Finally, animals were washed with PBS (3×5 minutes) and slides were mounted using Vectashield (Vector Laboratories). Slides were analyzed using a Leica 2500P microscope equipped with epifluorescence, a 40× objective and a DFC360FX CCD camera.
All somatic PH3-positive cells were counted manually using the Image J cell counter plugin (44) (FIG. 1). Gonadal PH3+ cells were not included in the analysis because of 1) the high density of divisions in that region that can lead to overlapping signals and 2) the germ line representing a separate population of cells, differentially tolerant to exposure, which can result in quantification variability.
The cut-off value of the assay was determined based on density plots (R version 2.15.3; (33)) of the number of mitotic stem cells of all experiments for controls (sea water and DMSO), non-carcinogens, genotoxic carcinogens and non-genotoxic carcinogens. The cut-off value of 30 lays in the tail of the distribution corresponding to the 97.5 percentile or two standard deviations.
Concentrations resulting in the death of 20% of the worms (three out of fifteen) during exposure were considered cytotoxic and were not analyzed.

[2] = test system: Schmidtea mediterranea
Experimental: (§1) Asexual strains of the freshwater planarian Schmidtea mediterranea (38, 45) were maintained in culture medium, consisting of water, that was first deionized and then distilled, and to which the following nutrients were added: 1.6 mM NaCl, 1.0 mM CaCl2, 1.0 mM MgSO4, 0.1 mM MgCl2, 0.1 mM KCl and 1.2 mM NaHCO3. The animals were continuously kept in the dark at a room temperature of 20° C. and were fed once a week with veal liver.
Experiments were performed with regenerating animals (heads and tails) to accelerate initial responses to carcinogenic compounds, as this process of massive cell proliferation, migration and differentiation resembles the process of carcinogenesis, and, possibly differently affects the dynamics of stem cells toward genotoxic and non-genotoxic carcinogen exposures (16, 32, 39).
In each experimental condition, animals were cut transversally immediately before exposure to a genotoxic, non-genotoxic or non-carcinogen concentration, medium (control) or medium with DMSO (vehicle control). Exposures were performed in six-well plates (4 ml/well). To exclude intrinsic effects of DMSO on cell proliferation, the DMSO vehicle concentration never exceeded 0.05% and interaction effects between the test compound and DMSO were investigated using a two-way ANOVA (32). […] Animals were fed once a week with veal liver and starved for one week before stem cell proliferation measurements. Stem cell proliferation was measured after one day of regeneration (the mitotic minimum of regeneration), after three days (the mitotic maximum of regeneration), after one week (the end stage of regeneration) after two and six weeks (during homeostasis), as well as at the appearance of organismal phenotypes (15, 46, 47). Phenotypic effects were monitored daily with a stereo microscope.
An in vivo study allows the investigation of the entire organism's response to carcinogenic compounds and, as such, makes it possible to link carcinogen-induced stem cell proliferation with the organism's phenotype. Conditions were subdivided according to their phenotypic effects into concentrations that caused no observable phenotypic effects (category 1), phenotypic effects (category 2, described in phenotypic effect screening) and concentrations that induced organismal death (category 3). Phenotypic parameters that were monitored daily were tissue regression, lesion, blisters, bloating, pigmentation, behavior, regenerative success, body size, tissue outgrowth, flattened posture and organismal death (35). Stem cell proliferation was quantified at the appearance of systemic effects (category 2 concentrations).

[3] = Solubility of test compound in the exposure medium; assay type: physicochemical; conditions: concentrations higher than 5 mM
[4] = test system: Schmidtea mediterranea; conditions: in vivo
Experimental: as §1, with “liver. […]” for “liver.”
In each experimental condition, animals were cut transversally immediately before exposure to a genotoxic, non-genotoxic or non-carcinogen concentration, medium (control) or medium with DMSO (vehicle control). […] Stem cell proliferation was measured after one day of regeneration (the mitotic minimum of regeneration), after three days (the mitotic maximum of regeneration), after one week (the end stage of regeneration) after two and six weeks (during homeostasis), as well as at the appearance of organismal phenotypes (15, 46, 47). Phenotypic effects were monitored daily with a stereo microscope.

[5] = category 2 concentrations, three days (MMS), one week (4NQO), two weeks (S-PB, CPZ, MPH)
[6] = asexual strain, Schmidtea mediterranea, in vivo
[7] = asexual strain, Schmidtea mediterranea, in vivo, 2 weeks
[8] = 100 μM, Experiment 2, two weeks exposure
[9] = 100 μM, Experiment 3, two weeks exposure

O=[N+]([O-])c1cc[n+]([O-])c2ccccc12 [4-Nitroquinoline-1-oxide]
proportion of worms having 30 or more mitotic stem cells ([1]; 0.125 μM, Experiment 2, two weeks exposure): 16.7%
proportion of worms having 30 or more mitotic stem cells ([1]; 0.5 μM, Experiment 1, two weeks exposure): 77.8%
proportion of worms having 30 or more mitotic stem cells ([1]; 0.5 μM, Experiment 2, two weeks exposure): 0%
proportion of worms having 30 or more mitotic stem cells ([1]; 0.5 μM, Experiment 3, two weeks exposure): 36.4%
Cat. 1 concentrations: No effects on phenotype ([2]; 4NQO, exposure one week): 0.1 to 0.5 µM
Cat. 2 concentrations: Phenotypic effects ([2]; 4NQO, exposure one week): 2 µM
Cat. 3 concentrations: Mortality ([2]; 4NQO, exposure one week): 5 µM
Number of animals with Behavior effects [2, 5]: 3/4
Number of animals with Pigmentation [2, 5]: 2/4
Number of animals with Regenerative success effects [2, 5]: 4/4
Number of animals with Tissue regression [2, 5]: 2/4

CN(C)CCCN1c2ccccc2Sc2ccc(Cl)cc21 [CPZ, chlorpromazine hydrochloride]
Number of animals with Behavior effects [2, 6]: 4/4
Number of animals with Body size effects [2, 6]: 2/2
concentrations that trigger phenotypic effects [2, 6]: 1 µM
Cat. 1 concentrations: No effects on phenotype [2, 7]: 0.25 to 0.5 µM
Cat. 2 concentrations: Phenotypic effects [2, 7]: 0.75 to 1 µM
Cat. 3 concentrations: Mortality [2, 7]: 2 µM

O=P1(N(CCCl)CCCl)NCCCO1 (stereo not drawn) [Cyclophosphamide monohydrate]
proportion of worms having 30 or more mitotic stem cells ([1]; 50 μM, Experiment 1, two weeks exposure): 0%
proportion of worms having 30 or more mitotic stem cells ([1]; 50 μM, Experiment 2, two weeks exposure): 0%
proportion of worms having 30 or more mitotic stem cells ([1]; 50 μM, Experiment 3, two weeks exposure): 16.7%
proportion of worms having 30 or more mitotic stem cells ([1]; 100 μM, Experiment 1 (only three worms quantified, experiment excluded), two weeks exposure): 66.7%
Pred [1, 8]: + (+ in case 20% or more worms having 30 or more mitotic stem cells)
proportion of worms having 30 or more mitotic stem cells [1, 8]: 20%
Pred [1, 9]: + (+ in case 20% or more worms having 30 or more mitotic stem cells)
proportion of worms having 30 or more mitotic stem cells [1, 9]: 33.3%
Prediction of the experiment ([1]; Experiment 2, all concentrations, two weeks exposure): Pos
Prediction of the experiment ([1]; Experiment 3, all concentrations, two weeks exposure): Pos
Overall prediction ([1]; final prediction call over three experiments): Pos
concentrations predicted positive ([1]; two weeks exposure): 100 µM
prediction by the assay in the experiments ([1]; two weeks exposure): predicted positive in all experiments

OC[C@@H](O)[C@@H](O)[C@H](O)[C@H](O)CO [D-mannitol]
proportion of worms having 30 or more mitotic stem cells ([1]; 1000 μM, Experiment 1, two weeks exposure): 0%
proportion of worms having 30 or more mitotic stem cells ([1]; 1000 μM, Experiment 2, two weeks exposure): 0%
proportion of worms having 30 or more mitotic stem cells ([1]; 1000 μM, Experiment 3, two weeks exposure): 0%
proportion of worms having 30 or more mitotic stem cells ([1]; 5000 μM, Experiment 1, two weeks exposure): 0%
proportion of worms having 30 or more mitotic stem cells ([1]; 5000 μM, Experiment 2, two weeks exposure): 0%
proportion of worms having 30 or more mitotic stem cells ([1]; 5000 μM, Experiment 3, two weeks exposure): 0%
concentration up to which predicted negative ([1]; all three experiments, two weeks exposure): up to 5 mM
worms having a number of mitotic stem cells exceeding the cut-off value ([1]; all three experiments, up to 5 mM, two weeks exposure): 0%
prediction by the assay in the experiments ([1]; two weeks exposure): predicted negative by the assay for all three experiments
solubility in the medium [3]: insolubility in the medium
effects on proliferative responses [4]: no significant effects
phenotypic effects induced by exposure ([2]; in vivo): no phenotypic effects
